Measured values from patent US7989466B2, “Methods to inhibit or augment an inflammatory response” (Cambridge Enterprise Limited, priority 1999, dated 2011).
Positions of bridges follow the written chain, without caps; N, C: chain ends. Non-standard residues stand in square brackets, D forms with d. Residues, ends and D or L forms follow the SMILES beside them.

Legend:
[1] = in vivo; settings: female, Sprague-Dawley, rat, iv, 8.8 mg; for dose excreted: rats, 8.8 mg i.v.
[2] = system: fMLP induced THP-1 migration; experiment: THP-1 chemotaxis assay, fMLP as chemoattractant; format: cell-based; settings: Homo sapiens, fMLP is not a chemokine, read-out: ED50, fMLP chemotaxis assay
Method: To determine whether an agent inhibits a chemokine-induced activity, such as macrophage recruitment, varying amounts of the agent are mixed with cells in the presence of a known chemoattractant. For example, a range of known concentrations of an agent, e.g., a chemokine peptide, is incubated with a defined number (e.g., 10^4-10^6) of human THP-1 monocyte cells in individual wells of the top compartment of a trans-well plate. Chemokine (such as MCP-1, MIP1α, IL8 or SDF-1α), at a concentration known to cause significant migration of THP-1 cells in the trans-well migration assay, is placed in the lower compartment (FIG. 1). Cells are then incubated at 37° C. for a period sufficient to allow migration, e.g., 4 hours. After incubation, the cells are gently removed from the top of the filter with a pipette, 20 μl of 20 mM EDTA in simple PBS is added into each top well, and incubated for 20 minutes at 4° C. The filter is carefully flushed with media using a gentle flow, and removed. A standard curve consisting of a two-fold dilution series of THP-1 cells (in 29 μl) is prepared to accurately quantify the number of cells that have migrated. […] Absorbance of converted dye is measured at a wavelength of 595 nm using an ELISA plate reader. The number of migrated cells in each well is then determined by interpolation of the standard curve (see also Imai et al., J. Biol. Chem., 272, 15036 (1997)). […]

[3] = target: T1, 5-HT1a receptors (Homo sapiens, UniProt P08908); experiment: 5HT1a serotonin receptor membrane binding (3H-8-OH-DPAT)
T1 construct: purchased RBI/Sigma S-160
Method: For 5HT1a serotonin receptors, membranes (S-160, RBI/Sigma) are diluted into binding buffer (50 mM Tris pH 7.4 10 mM MgCl2 and 0.5 mM EDTA, with ascorbate at 1 mg/ml added immediately before use), e.g., 10 μl of membranes in 500 μl assay volume (i.e., 1:50 dilution). Cold competitor or test competitor is then added, e.g., 5 μl of 100× stock solution such as 5 μl of 1 mM oxymetazoline. […] The tubes are vortexed then spun briefly. The mixtures are incubated for 1 hour at 4° C. The mixtures are filtered through GF/C filters pre-soaked in polyethyleneimine (0.3% in MilliQ water). The tubes are washed with 2-3 ml of wash buffer and filtered. The filter is washed with 3×5 ml of wash buffer, and air dried. 4.5 ml of scintillant is added to the dried filter in a scintillation vial and the filter counted on a tritium channel.

[4] = target: T2, Recombinant human latent TGF-β1 (Homo sapiens, UniProt P01137); experiment: Latent TGF-β1 activation ELISA (R2X capture); format: biochemical; parameters: key: −: A minus indicates no detectable activity in the assay; +: The number of pluses is a qualitative indicating of the activity of each peptide in each assay; ++: The number of pluses is a qualitative indicating of the activity of each peptide in each assay; +++: The number of pluses is a qualitative indicating of the activity of each peptide in each assay; ++++: The number of pluses is a qualitative indicating of the activity of each peptide in each assay; +++++: The number of pluses is a qualitative indicating of the activity of each peptide in each assay; settings: test peptide at 100 nM, 37° C., 90 minutes
T2 construct: purchased R&D Systems; host or cells: CHO cells
Method: To test whether a KXK tripeptide activates TGF-beta, a direct ELISA-type assay can be used. Recombinant human latent TGF-β1 produced in CHO cells (R&D Systems) was incubated with the test activator. For example, 200 ng of latent TGF-β1 (at 20 μg/ml) was incubated with test peptide at 100 nM final concentration at 37° C. for 90 minutes. Following incubation, the TGF-β is incubated with the recombinant extracellular domain of the Type II TGF-β receptor (R2X) which binds only the active and not the latent forms of TGF-β1 (Clin. Chim. Acta, 235, 11 (1995)). For example, 1 μg of purified R2X is coated onto a Maxisorp ELISA plate well in 50 μl of 100 mM sodium carbonate for 2 hours at 4° C., and non-specific protein binding then blocked incubation with 5% sucrose 5% Tween-20 in Tris-buffered saline for 1 hour at room temperature.
The TGF-β sample is then incubated with the coated and blocked wells for 2 hours at room temperature with shaking. Wells are washed 3 times quickly with Tris-buffered saline containing 0.05% Tween-20 between each incubation. If any of the latent TGF-β1 has been activated by the incubation with test peptide, it is captured by the R2X, while remaining latent TGF-β1 is washed away. Captured active TGF-β1 is then detected by incubation with a suitable detection agent, such as a peroxidase conjugated polyclonal anti-TGF-beta antibody. For example, the wells are incubated with 200 μl of BDA19 chicken anti-TGF-β1 antibody coupled to horseradish peroxidase for 90 minutes at room temperature with shaking. Any bound peroxidase is then detected using a suitable chromogenic substrate (e.g., K-BLUE TMB substrate solution). The amount of active TGF-β generated is estimated by interpolation of a standard curve constructed using known amounts of active TGF-β1 (R&D Systems).

T1 sequence (P08908 whole entry): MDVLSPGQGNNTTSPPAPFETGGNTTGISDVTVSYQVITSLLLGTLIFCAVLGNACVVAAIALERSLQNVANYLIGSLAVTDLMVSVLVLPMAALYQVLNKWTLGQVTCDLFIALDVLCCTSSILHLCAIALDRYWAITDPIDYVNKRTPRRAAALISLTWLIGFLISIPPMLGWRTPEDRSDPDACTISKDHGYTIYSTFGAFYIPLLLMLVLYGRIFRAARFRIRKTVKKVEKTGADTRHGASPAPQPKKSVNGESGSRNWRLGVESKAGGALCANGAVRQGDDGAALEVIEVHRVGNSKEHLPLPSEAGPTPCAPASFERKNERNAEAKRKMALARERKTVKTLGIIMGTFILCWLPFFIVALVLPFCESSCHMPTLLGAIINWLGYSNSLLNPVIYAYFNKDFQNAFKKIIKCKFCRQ
T2 sequence (P01137 30-278 limits assumed): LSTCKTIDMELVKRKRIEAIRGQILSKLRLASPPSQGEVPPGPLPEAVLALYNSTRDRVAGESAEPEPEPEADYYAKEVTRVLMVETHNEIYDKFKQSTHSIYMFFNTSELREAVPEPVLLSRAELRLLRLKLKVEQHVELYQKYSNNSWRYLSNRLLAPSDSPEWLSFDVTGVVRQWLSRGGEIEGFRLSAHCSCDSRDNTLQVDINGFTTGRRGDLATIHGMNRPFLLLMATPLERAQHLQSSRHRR

**Q.** Which half-life [1] does the source give for CC[C@@H](C)[C@H]1NC(=O)[C@@H](CCC(N)=O)NC(=O)[C@H](N)CSSC[C@H](C(N)=O)NC(=O)[C@@H](CC(C)C)NC(=O)[C@@H](CC(=O)O)NC(=O)[C@H]2CCCN2C(=O)[C@@H](CCCCN)NC(=O)[C@@H](CCC(N)=O)NC(=O)[C@@H](CCCCN)NC(=O)[C@@H](Cc2c[nH]c3ccccc23)NC1=O (H-[dC][dQ][dI][dW][dK][dQ][dK][dP][dD][dL][dC]-NH2; disulfide 1-11; N-terminus assumed) here?
**A.** The half-life was roughly 10 min.

**Q.** And the dose excreted ([1]; administered dose recovered in urine over 24 hours)?
**A.** The dose excreted was roughly 70%.

**Q.** And the dose excreted ([1]; dose excreted in urine over the first two hours)?
**A.** Its dose excreted is greater than 55%.

**Q.** Which EC50 [2] does the source give for C=CCCCCCCCCC(=O)N[C@H]1CCC(=O)NC1=O [A-I (NR58.4), [3S]-3-(undec-10-enoylamino)piperidine-2,6-dione] here?
**A.** The EC50 was greater than 100 µM.

**Q.** And the “selectivity for MCP-1 inhibition over serotonin receptor binding” value [3]?
**A.** Its value is “approximately 40,000 fold”.

**Q.** What about the EC50 ([3]; 100 μM highest concentration tested) of the same compound?
**A.** The EC50 was 80 µM.

**Q.** Which “TGF-beta Activator” value [4] does the source give for NCCCC[C@H](NC(=O)[C@H](CCC(N)=O)NC(=O)[C@@H](N)CCCCN)C(=O)O [KQK] here?
**A.** Its value is “−”.
